# In patent US20230303564A1, “PYRIMIDINE RING COMPOUND” (MEDSHINE DISCOVERY INC., priority 2020, published 2023):
# Columns and labels:
# CDK4/CyclinD1 = CDK4/CyclinD1 (Homo sapiens (Human), UniProt P11802); assay: CDK4/CyclinD1 enzyme activity test (LANCE Ultra TR-FRET); type: biochemical; conditions: 350 μM ATP, 25° C. 120 minutes, read-out: CDK4/Cyclin D1 IC50
# Procedure: CDK4/CyclinD1 Enzyme Reaction System
# (§1) Preparation of Kinase Buffer:
# (§2) The composition of the buffer: 50 mM of hydroxyethylpiperazine ethanesulfonic acid solution at pH 7.5, 1 mM of ethylenediaminetetraacetic acid, 10 mM of magnesium chloride, 0.01% Brij-35, and 2 mM of dithiothreitol.
# (§3) Enzymes, substrate LANCE Ultra ULight™-4E-BP-1(Thr37146) Peptide, ATP, and inhibitors were diluted by kinase buffer.
# (§4) The compounds to be tested were diluted 5-fold with a multi-channel pipette to the eighth concentration, that is, from 40 μM to 0.512 nM, the concentration of DMSO was 4%, and a double-hole experiment was set up. […] The reaction system was reacted at 25° C. for 120 minutes. After the reaction, 5 μL mixture of EDTA and 2× LANCE™ Detection Buffer (1:1) were added to each well, the reaction was carried out at 25° C. for 5 minutes, after the reaction was completed, 5 μL of LANCE Ultra Eu-anti-P-4E-BP1(Thr37MS) (4 nM) was added to each well, the reaction was carried out at 25° C. for 60 minutes, the reaction signal was detected by Nivo instrument according to the principle of time-resolved fluorescence resonance energy transfer.
# (§5) The equation (Sample−Min)/(Max−Min)*100% was used to convert the raw data into inhibition rate, and the value of IC50 can be obtained by curve fitting with four parameters (obtained by log (inhibitor) vs. response-Variable slope mode in GraphPad Prism). The enzymatic inhibitory activity of the compounds of the present disclosure on CDK1/CyclinB1, CDK2/CyclinA2, CDK2/CyclinE1, CDK4/CyclinD1, CDK6/CyclinD1, CDK7/CyclinH/MAT1, CDK9/CyclinT1 was provided in Table 1.
# OVCAR-3 cells = assay: Cell activity test, anti-proliferation (CellTiter Glo), OVCAR-3; type: cell-based, human; conditions: OVCAR-3, 7 days of culture
# Procedure: 2) Day 1: Laying Cell Plates
# (6) 0.7 mL of cell suspension was pipetted into the counting cup, the cells were counted on ViCell XR, and the cell suspension was diluted separately with culture medium to the required cell concentration for laying cell plates: 1000/30 ul.
# (7) Microplates (2 plates) were required, 100 uL of phosphate buffered saline was added to the peripheral wells of the 384-well plate, 30 uL of cell suspension was added to the other wells, and the cell plate was placed into incubator for culture.
# (1) Compound preparation: the stock solution of the compound to be tested was 10 mM.
# (2) The compound to be tested was diluted 3 times with DMSO for 10 gradients.
# (2) The compound to be tested was diluted with culture medium, and the highest final concentration was 10 μM.
# (4) 10 μL of the compound was pipetted into the 384-well plate, and then the cell plate was placed back into the incubator for culture.
# 4) Adding CTG and Reading the Plate
# (1) After 7 days of culture, 50 ul CellTiter Glo was added to the cell plate, shaken for 10 minutes in the dark, and left at room temperature for 5 minutes.
# (2) The plate was read on Envision with the program: US LUM 384 (CPS). The experiment was originally stored in the personal disk:
# 1. The mean and standard deviation of 0% inhibition (DMSO row, ZPE) and 100% inhibition (PBS row, HPE) were calculated;
# 2. Inhibition rate (%)=(1−(sample value-average value of 100% inhibition)/(average value of 0% inhibition-average value of 100% inhibition))*100;
# 3. The curve was fitted by GraphPad 8.0 software;
# [1] = system: human ovarian cancer OVCAR-3 cells subcutaneous xenograft tumor; assay: In vivo efficacy study, OVCAR-3 subcutaneous xenograft tumor BALB/c nude mouse model; conditions: for Tumor volume (Day 0): Day 0 (at grouping), OVCAR-3 xenograft, BALB/c nude mice; for Tumor volume (Day 7): 10 mg/kg from day 0 to day 7; for Tumor volume (Day 14): 10 mg/kg from day 0 to day 14; for Tumor volume (Day 21): 10 mg/kg day 0 to day 14, 30 mg/kg from day 14 to day 21
# Procedure: In vivo efficacy study of human ovarian cancer OVCAR-3 cells subcutaneous xenograft tumor BALB/c nude mouse model
# Cell culture: Human ovarian cancer OVCAR-3 cells were monolayer cultured in vitro, the culture conditions were 10% fetal bovine serum, 100 U/mL Penicillin and 100 μg/mL Streptomycin were added in RPMI 1640 medium, cultured at 37° C. 5% CO2 incubator. Conventional digestion with trypsin-EDTA was performed for passage. When the cell saturation was 80%/90% and the number reached the required level, the cells were collected, counted, and inoculated.
# Animals: BALB/c nude mice, female, 6-8 weeks old, weighed 18-22 grams. A total of 95 (42+ additional 53) animals were needed, provided by the Experimental Animal Management Department of Shanghai Institute of Family Planning Sciences (formerly Shanghai Sipulbichem).
# Tumor inoculation: 0.2 mL (1×10^7) OVCAR-3 cells (with matrix glue, volume ratio of 1:1) were subcutaneously inoculated on the right back of each mouse, and the mice were grouped administrated when the average tumor volume reached about 150 mm^3.
# Dosage and frequency of administration: Day 0 to Day 7, 10 mg/kg; Day 7 to Day 14, 10 mg/kg; Day 14 to Day 21, 30 mg/kg;
# Experimental index: The experimental index was used to examine whether tumor growth was inhibited, delayed or cured. Tumor diameters were measured with vernier calipers twice a week. The calculation formula of tumor volume was: V=0.5a×b^2, wherein a and b represented the long and short diameters of the tumor, respectively.
# CDK2/CyclinE1 = CDK2/CyclinE1 (Homo sapiens (Human), UniProt P24941); assay: CDK2/CyclinE1 enzyme activity test (ADP-Glo); type: biochemical; conditions: 150 μM ATP, 25° C. 60 minutes, read-out: CDK2/Cyclin E1 IC50
# Procedure: CDK2/CyclinE1 Enzyme Reaction System
# Enzymes, substrates, ATP, and inhibitors were diluted by kinase buffer in the kit. The compounds to be tested were diluted 5-fold with a multi-channel pipette to the eighth concentration, that is, from 50 μM to 0.65 nM, the concentration of DMSO was 5%, and a double-hole experiment was set up. 1 μL of each concentration gradient of inhibitors, 2 μL of CDK2/CyclinE1 enzyme (2 ng), 2 μL mixture of substrate and ATP (150 μM ATP, 0.1 μg/μL substrate) were added to the microplates, and the final concentration gradient of the compound was 10 μM to 0.13 nM. The reaction system was reacted at 25° C. for 60 minutes. After the reaction, 5 μL of ADP-Glo reagent was added to each well, the reaction was carried out at 25° C. for 40 minutes, after the reaction was completed, 10 μL of kinase detection reagent was added to each well, the reaction was carried out at 25° C. for 30 minutes, the multiple label analyzer was used to read the chemiluminescence with an integration time of 0.5 seconds.
# as §5
# CDK6/CyclinD1 = CDK6/CyclinD1 (Homo sapiens (Human), UniProt Q00534); assay: CDK6/CyclinD1 enzyme activity test (LANCE Ultra TR-FRET); type: biochemical; conditions: 250 μM ATP, 25° C. 120 minutes, read-out: CDK6/Cyclin D1 IC50
# Chain of CDK6/CyclinD1 (Q00534 whole entry): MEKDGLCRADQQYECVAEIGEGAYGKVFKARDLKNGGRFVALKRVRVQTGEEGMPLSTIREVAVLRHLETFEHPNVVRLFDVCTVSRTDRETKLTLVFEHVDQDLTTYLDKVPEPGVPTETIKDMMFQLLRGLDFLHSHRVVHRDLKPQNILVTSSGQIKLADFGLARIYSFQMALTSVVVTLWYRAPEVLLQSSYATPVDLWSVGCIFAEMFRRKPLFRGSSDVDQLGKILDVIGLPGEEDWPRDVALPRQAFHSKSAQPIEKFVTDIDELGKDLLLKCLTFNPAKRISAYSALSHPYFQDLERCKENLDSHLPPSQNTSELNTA
# Chain of CDK6/CyclinD1 (P24385 whole entry partner): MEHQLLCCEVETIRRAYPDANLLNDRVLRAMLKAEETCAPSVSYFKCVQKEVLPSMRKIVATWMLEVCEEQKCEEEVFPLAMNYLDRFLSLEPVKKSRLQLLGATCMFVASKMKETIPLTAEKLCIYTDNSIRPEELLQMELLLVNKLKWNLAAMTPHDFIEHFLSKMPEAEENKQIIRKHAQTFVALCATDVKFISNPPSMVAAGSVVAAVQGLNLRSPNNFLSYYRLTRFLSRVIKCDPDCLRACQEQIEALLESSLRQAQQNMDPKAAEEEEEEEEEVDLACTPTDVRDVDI
# Procedure: CDK6/CyclinD1 Enzyme Reaction System
# as §1, §2, §3, §4, §5
# Chain of CDK4/CyclinD1 (P11802 whole entry): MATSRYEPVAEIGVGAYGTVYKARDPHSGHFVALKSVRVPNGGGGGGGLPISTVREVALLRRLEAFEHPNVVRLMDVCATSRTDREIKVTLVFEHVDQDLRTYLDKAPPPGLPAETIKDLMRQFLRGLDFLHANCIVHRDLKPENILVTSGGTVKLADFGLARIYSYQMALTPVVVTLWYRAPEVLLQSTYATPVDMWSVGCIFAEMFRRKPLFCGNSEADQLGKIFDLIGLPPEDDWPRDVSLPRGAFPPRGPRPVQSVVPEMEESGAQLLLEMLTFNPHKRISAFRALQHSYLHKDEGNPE
# Chain of CDK4/CyclinD1 (P24385 whole entry partner): as the sequence (P24385 whole entry partner) above
IC50 (CDK4/CyclinD1),IC50 (OVCAR-3 cells),IC50 (CDK2/CyclinE1),IC50 (CDK6/CyclinD1),Compound,Tumor volume (Day 0) [1],Tumor volume (Day 7) [1],Tumor volume (Day 14) [1],Tumor volume (Day 21) [1]
0.5 nM,44 nM,3.52 nM,1.36 nM,"CS(=O)(=O)N1CCC(Nc2ncc3cc(C(F)F)nc(N[C@@H]4CCCC4(F)F)c3n2)CC1 (single isomer, unassigned) [Compound 22]",151 mm^3,243 mm^3,319 mm^3,238 mm^3
4.26 nM,29 nM,4.73 nM,1.15 nM,Cc1cn(C)nc1Nc1nc(C(F)F)cc2cnc(NC3CCN(S(C)(=O)=O)CC3)nc12 [Compound 19],151 mm^3,246 mm^3,375 mm^3,392 mm^3
0.82 nM,12 nM,1.33 nM,0.56 nM,Cn1cc(Cl)c(Nc2nc(C(F)F)cc3cnc(NC4CCN(S(C)(=O)=O)CC4)nc23)n1 [Compound 20],151 mm^3,236 mm^3,338 mm^3,363 mm^3
